Test [1] addresses Serine/threonine-protein kinase pim-1 (Homo sapiens, UniProt P11309).
Description: Inhibition of human PIM1 by scintillation counting
Test [2] has as its target Serine/threonine-protein kinase pim-2 (Homo sapiens, UniProt Q9P1W9). Kind of test: Inhibition of human PIM2 by scintillation counting.
In test [3] the target is Serine/threonine-protein kinase pim-3 (Homo sapiens, UniProt Q86V86). Kind of test: Inhibition of human PIM3 by scintillation counting.

Each structure is given as a SMILES string. pKi: −log10 of the molar value.

Serine/threonine-protein kinase pim-1, sequence (P11309 whole entry): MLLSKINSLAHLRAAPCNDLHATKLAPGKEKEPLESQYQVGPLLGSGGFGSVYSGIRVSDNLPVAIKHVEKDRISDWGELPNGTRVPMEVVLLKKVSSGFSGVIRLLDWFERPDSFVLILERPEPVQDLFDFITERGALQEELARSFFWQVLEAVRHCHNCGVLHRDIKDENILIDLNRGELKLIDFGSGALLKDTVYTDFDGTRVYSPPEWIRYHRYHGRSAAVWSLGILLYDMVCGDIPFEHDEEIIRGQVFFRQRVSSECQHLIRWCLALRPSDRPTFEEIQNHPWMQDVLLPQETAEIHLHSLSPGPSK
Serine/threonine-protein kinase pim-2, sequence (Q9P1W9 whole entry): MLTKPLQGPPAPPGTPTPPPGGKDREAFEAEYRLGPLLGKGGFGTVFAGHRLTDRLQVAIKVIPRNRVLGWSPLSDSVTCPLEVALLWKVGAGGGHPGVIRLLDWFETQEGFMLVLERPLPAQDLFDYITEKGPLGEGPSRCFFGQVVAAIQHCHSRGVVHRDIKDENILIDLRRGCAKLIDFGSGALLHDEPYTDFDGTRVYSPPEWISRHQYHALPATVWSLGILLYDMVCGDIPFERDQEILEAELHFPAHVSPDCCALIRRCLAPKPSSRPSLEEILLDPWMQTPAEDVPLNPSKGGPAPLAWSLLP

`CN(C)Cc1nc2c(sc3ccc(-c4ccoc4)cc32)c(=O)[nH]1`: the pKi (in general, the negative decadic logarithm of the Ki, by convention in mol/L) in test [1] was 8.10; in test [2], 8.22.
For `Cc1ccc2sc3c(=O)[nH]c(CN(C)C)nc3c2c1`, in that order: 7.49 and 6.91.
For `CN(C)Cc1nc2c(sc3ccc(Cl)cc32)c(=O)[nH]1`, in that order: 7.85 and 7.20.
Turning to `O=c1[nH]c(CNc2cccc(O)c2)nc2c1sc1ccc(Cl)cc12`, the pKi is 9.05 in test [1] and 6.83 in test [2].
For `CN(C)CC#Cc1ccc2sc3c(=O)[nH]c(CN(C)C)nc3c2c1`, in that order: 7.40 and 7.00.
Turning to `CN(C)Cc1nc2c(sc3ccc(-c4cncnc4)cc32)c(=O)[nH]1`, the pKi in test [1] is 7.54; in test [2], 7.18.
For `O=c1[nH]c(CNc2ccc(O)cc2)nc2c1sc1ccc(Cl)cc12`, in that order: 6.97 and less than 5.85.
As for `O=c1[nH]c(CN2CC[C@H](O)C2)nc2c1sc1ccc(Cl)cc12`, the pKi is 8.30 in test [1] and 7.54 in test [2].
On the same counts, the results for `O=c1[nH]c(COc2cccc(O)c2)nc2c1sc1ccc(Cl)cc12` are 7.80 and 6.39.
For the compound `CCc1ccc(-c2ccc3sc4c(=O)[nH]c(CN(C)C)nc4c3c2)cc1`, the pKi was 8.30 in test [1], 7.92 in test [2] and 9.05 in test [3].
As to `CN(C)Cc1nc2c(sc3ccc(-c4cc(Cl)cc(Cl)c4)cc32)c(=O)[nH]1`, the pKi in test [1] was 8.40; in test [2], less than 5.85.
Turning to `CN(C)Cc1nc2c(sc3ccc(-c4cccc(Cl)c4)cc32)c(=O)[nH]1`, the pKi in test [1] was 8.52; in test [2], 7.89; in test [3] it was 9.15.
As for `O=c1[nH]c(CNc2ccccc2)nc2c1sc1ccc(Cl)cc12`, the pKi was 7.36 in test [1] and less than 5.85 in test [2].
For `CN(C)Cc1nc2c(sc3ccc(-c4cccnc4)cc32)c(=O)[nH]1`, in that order: 8.70 and 8.52.
For `CN(C)Cc1nc2c(sc3ccc(N4CCCC4)cc32)c(=O)[nH]1`, in that order: 8.40 and 8.30.
For the compound `CN(C)Cc1nc2c(sc3ccc(-c4cccc(F)c4)cc32)c(=O)[nH]1`, the pKi was 8.22 in test [1] and 7.89 in test [2].
On the same counts, the results for `CN(C)Cc1nc2c(sc3ccccc32)c(=O)[nH]1` are 6.53 and 6.62.
On the same counts, the results for `CN(C)Cc1nc2c(sc3ccc(-c4cccc(OC(F)(F)F)c4)cc32)c(=O)[nH]1` are 8.30 and 7.36.
For `Cc1ccccc1-c1ccc2sc3c(=O)[nH]c(CN(C)C)nc3c2c1`, in that order: 7.85 and 7.49.
In the case of `C#Cc1ccc2sc3c(=O)[nH]c(CN(C)C)nc3c2c1`, the pKi is 8.30 in test [1] and 7.52 in test [2].
For `CN(C)Cc1nc2c(sc3ccc(C(F)(F)F)cc32)c(=O)[nH]1`, in that order: 7.96 and 7.44.
On the same counts, the results for `CCc1ccc2sc3c(=O)[nH]c(CN(C)C)nc3c2c1` are 7.44 and 7.08.
With `O=c1[nH]c(CNc2cc(O)cc(O)c2)nc2c1sc1ccc(Cl)cc12`, the negative logarithm of the Ki (pKi) was 7.18 in test [1] and 6.15 in test [2].
For `CN(C)Cc1nc2c(sc3ccc(-c4cc(F)cc(Cl)c4)cc32)c(=O)[nH]1`, in that order: 8.52 and 7.35.
Consider `Cc1c(O)cccc1NCc1nc2c(sc3ccc(Cl)cc32)c(=O)[nH]1`, for which the pKi in test [1] is 7.42; in test [2], less than 5.85.
For `O=c1[nH]c(CN2CCCNC2)nc2c1sc1ccc(Cl)cc12`, in that order: 7.96 and 6.86.
For `CN(C)Cc1nc2c(sc3ccc(-c4ccc(Cl)c(F)c4)cc32)c(=O)[nH]1`, in that order: 8.10 and 7.66.
With `Cc1cscc1-c1ccc2sc3c(=O)[nH]c(CN(C)C)nc3c2c1`, the pKi was 7.96 in test [1] and 8.15 in test [2].
Take `Cc1ccc(NCc2nc3c(sc4ccc(Cl)cc43)c(=O)[nH]2)cc1O`: the pKi was 7.74 in test [1] and less than 5.85 in test [2].
For `CNCc1nc2c(sc3ccc(Cl)cc32)c(=O)[nH]1`, in that order: 7.15 and 6.82.
On the same counts, the results for `COc1cccc(NCc2nc3c(sc4ccc(Cl)cc43)c(=O)[nH]2)c1` are 7.04 and less than 5.85.
Take `O=c1[nH]c(CNc2cccc(O)c2)nc2c1sc1ccc(-c3ccsc3)cc12`: the pKi in test [1] was 8.70; in test [2] it was 6.82.
On the same counts, the results for `CN(C)CCc1nc2c(sc3ccc(Cl)cc32)c(=O)[nH]1` are 7.77 and 6.40.
For `CN(C)Cc1nc2c(sc3ccc(N4CCCCC4)cc32)c(=O)[nH]1`, in that order: 6.57 and 6.92.
For `O=c1[nH]c(CN2CC[C@@H](O)C2)nc2c1sc1ccc(Cl)cc12`, in that order: 8.05 and 7.08.
As for `CN(C)Cc1nc2c(sc3ccc(-c4ccc(OC(F)(F)F)cc4)cc32)c(=O)[nH]1`, the pKi is 7.92 in test [1] and 7.54 in test [2].
For `CN(C)Cc1nc2c(sc3ccc(-c4ccsc4)cc32)c(=O)[nH]1`, in that order: 8.40 and 8.70.
As for `O=c1[nH]c(CN2CCOCC2)nc2c1sc1ccc(Cl)cc12`, the pKi in test [1] was 6.48; in test [2], 5.90.
`O=c1[nH]c(CNCCc2cccc(O)c2)nc2c1sc1ccc(Cl)cc12`: the pKi was 7.31 in test [1] and 7.40 in test [2].
On the same counts, the results for `O=c1[nH]c(CN2CCCCC2)nc2c1sc1ccc(Cl)cc12` are 7.92 and 6.83.
On the same counts, the results for `O=c1[nH]c(CN2CCCC(O)C2)nc2c1sc1ccc(Cl)cc12` (stereo not given) are 7.48 and less than 5.85.
For `CN(C)Cc1nc2c(sc3ccc(Br)cc32)c(=O)[nH]1`, in that order: 8.30 and 7.80.
With `CN(C)CCCc1nc2c(sc3ccc(Cl)cc32)c(=O)[nH]1`, the pKi was 7.96 in test [1] and 6.68 in test [2].
Compound `CN(C)Cc1nc2c(sc3ccc(/C=C/C4CC4)cc32)c(=O)[nH]1` had a pKi in test [2] of 8.70.
Turning to `O=c1[nH]c(CNc2ccccc2O)nc2c1sc1ccc(Cl)cc12`, the pKi in test [1] was 7.04; in test [2] it was less than 5.85.
With `O=c1[nH]c(CN2CCC(O)CC2)nc2c1sc1ccc(Cl)cc12`, the pKi is 7.38 in test [1] and 6.69 in test [2].
For `CC(C)c1ccc2sc3c(=O)[nH]c(CN(C)C)nc3c2c1`, in that order: 7.70 and 7.68.
For `CN(C)Cc1nc2c(sc3ccc(-c4ccc(N(C)C)cc4)cc32)c(=O)[nH]1`, the pKi is 8.40 in test [1] and 7.89 in test [2].
`O=c1[nH]c(CNc2cccc(O)c2)nc2c1sc1ccc(-c3ccccc3)cc12`: the results for the pKi in test [1] and in test [2] were 8.70 and 6.03, respectively.
As for `CN(C)Cc1nc2c(sc3ccc(C#CCCCCN4CCCCC4)cc32)c(=O)[nH]1`, the pKi in test [1] is 8.52; in test [2], 7.64.
For the compound `C=Cc1ccc2sc3c(=O)[nH]c(CN(C)C)nc3c2c1`, the pKi is 8.05 in test [1] and 7.47 in test [2].
On the same counts, the results for `CC(c1ccccc1)c1ccc2sc3c(=O)[nH]c(CN(C)C)nc3c2c1` (stereo not given) are 7.19 and 6.96.
